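Tested at 5 concentrations; 48 h exposure; 96-well plates; endpoints linearly interpolated, else capped at highest concentration. Here, GI50 denotes the concentration required for 50% inhibition of growth.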 Calls of active or inactive are those of the source. No stated cut-off is given here; in the data, active = GI50 up to about 1.1 µM and inactive = higher.
Key:
Test in all cases: NCI anticancer screen, dose series, 48 h
CCRF-CEM = system: CCRF-CEM
SW-620 = system: SW-620
NCI/ADR-RES = system: NCI/ADR-RES
SF-268 = system: SF-268
COLO 205 = system: COLO 205
T47D = system: T47D
MDA-MB-435 = system: MDA-MB-435
NCI-H226 = system: NCI-H226
MDA-MB-231 = system: MDA-MB-231
RPMI-8226 = system: RPMI-8226
CAKI-1 = system: CAKI-1
HOP-62 = system: HOP-62
SNB-78 = system: SNB-78
RXF 631 = system: RXF 631
M19-MEL = system: M19-MEL
DMS-114 = system: DMS-114
HCT-116 = system: HCT-116
A549 = system: A549
HOP-18 = system: HOP-18
DLD-1 = system: DLD-1

Measured: GI50

CC(=O)O[C@H]1CN(S(=O)(=O)c2ccc(C)cc2)C[C@@H]1C1CCCCC1
inactive: CCRF-CEM 37.5 µM | SW-620 26.1 µM | NCI/ADR-RES 19.5 µM | SF-268 26.7 µM | COLO 205 46.8 µM | T47D 40.6 µM | MDA-MB-435 27.9 µM | NCI-H226 16.7 µM | MDA-MB-231 51.4 µM | RPMI-8226 33.1 µM | CAKI-1 45.8 µM | HOP-62 35.8 µM

O=C(Nc1ccc(C(F)(F)F)cc1[N+](=O)[O-])C(=O)Nn1c(S)nc2ccccc2c1=O
inactive: CCRF-CEM > 100 µM | SW-620 > 100 µM | SNB-78 > 100 µM | SF-268 > 100 µM | COLO 205 > 100 µM | RXF 631 > 100 µM | M19-MEL > 100 µM | DMS-114 > 100 µM | HCT-116 > 100 µM | A549 > 100 µM | NCI-H226 > 100 µM | RPMI-8226 > 100 µM | CAKI-1 > 100 µM | HOP-62 > 100 µM | HOP-18 > 100 µM | DLD-1 > 100 µM

Nc1nc(SCCC/C=C/B(O)O)nc2c1ncn2C1OC(CO)C(O)C1O (centres undefined)
inactive: CCRF-CEM > 243 µM | SW-620 > 243 µM | SNB-78 > 243 µM | SF-268 > 243 µM | COLO 205 > 243 µM | M19-MEL > 243 µM | HCT-116 > 243 µM | A549 > 243 µM | NCI-H226 > 243 µM | HOP-62 > 243 µM | DLD-1 > 243 µM

CCO/N=[N+](\[O-])N(CC)CC
inactive: CCRF-CEM > 100 µM | SW-620 > 100 µM | SNB-78 > 100 µM | SF-268 > 100 µM | RXF 631 > 100 µM | M19-MEL > 100 µM | HCT-116 > 100 µM | A549 > 100 µM | NCI-H226 > 100 µM | CAKI-1 > 100 µM | HOP-62 > 100 µM

C=C1C(=O)O[C@H]2C1[C@H](OC(=O)/C(C)=C\COC(C)=O)C[C@]1(CO1)[C@@H]1[C@H](O)[C@H]3O[C@@]3(C)[C@@H]12 (some centres undefined)
inactive: CCRF-CEM 10.5 µM | SW-620 13.2 µM | NCI/ADR-RES 21.4 µM | SNB-78 25.9 µM | SF-268 21.1 µM | COLO 205 8.73 µM | M19-MEL 15.7 µM | DMS-114 19.4 µM | HCT-116 13.1 µM | A549 49.2 µM | NCI-H226 26.8 µM | RPMI-8226 13.3 µM | CAKI-1 14.3 µM | HOP-62 > 100 µM | HOP-18 20 µM | DLD-1 12.2 µM

COc1cc([N+](=O)[O-])ccc1NC(=O)C(F)(F)F
inactive: CCRF-CEM > 100 µM | SW-620 > 100 µM | NCI/ADR-RES > 100 µM | SF-268 > 100 µM | COLO 205 > 100 µM | T47D 97.7 µM | MDA-MB-435 > 100 µM | HCT-116 > 100 µM | A549 > 100 µM | NCI-H226 > 100 µM | MDA-MB-231 > 100 µM | RPMI-8226 > 100 µM | CAKI-1 > 100 µM | HOP-62 > 100 µM

COc1ccc(/C(Cl)=C(\C=O)c2ccc(Cl)cc2)cc1OC
inactive: CCRF-CEM 2.98 µM | SW-620 3.75 µM | SNB-78 5.82 µM | SF-268 12.3 µM | COLO 205 3.77 µM | RXF 631 3.69 µM | M19-MEL 9.12 µM | DMS-114 4.47 µM | HCT-116 4.33 µM | A549 6.17 µM | NCI-H226 4.59 µM | RPMI-8226 3.32 µM | CAKI-1 4.59 µM | HOP-62 15.9 µM | HOP-18 19.1 µM | DLD-1 5.12 µM

CN(Cc1cnc2c(N)nc(N)nc2n1)c1ccc(Cl)cc1
inactive: CCRF-CEM > 100 µM | SW-620 > 100 µM | NCI/ADR-RES 16.2 µM | SF-268 33.6 µM | COLO 205 > 100 µM | T47D 52.5 µM | MDA-MB-435 > 100 µM | NCI-H226 1.91 µM | MDA-MB-231 > 100 µM | RPMI-8226 > 100 µM | CAKI-1 > 100 µM | HOP-62 39.3 µM

C=C1C(=O)OC2/C=C(\C)CC(O)/C=C(/CO)CC(OC(=O)/C(C)=C/C)C12 (centres undefined)
inactive: CCRF-CEM 13.9 µM | SW-620 17.6 µM | NCI/ADR-RES 130 µM | SNB-78 49.4 µM | SF-268 46.8 µM | COLO 205 19.3 µM | M19-MEL 23 µM | DMS-114 14.3 µM | HCT-116 29.6 µM | A549 155 µM | NCI-H226 30 µM | RPMI-8226 7.1 µM | CAKI-1 34.8 µM | HOP-62 95.3 µM | HOP-18 26.3 µM | DLD-1 26.8 µM
